Format in all cases: cell-based, rat
The subject of assay [1] is alpha skeletal actin promoter. As to the kind of experiment: alpha skeletal actin promoter-luciferase reporter in H9C2 cells. For orientation: A reporter such as luciferase makes a cellular process visible.
Description: Cells culture and transient transfections. […] Cells were cultured under conditions recommended by ATCC. Transient transfections were carried out in 96-well plates (5000 cells/well) using the Fugene transfection reagent (Roche), as per manufacturer's instructions. […] Forty-eight hours post-transfection, cells were processed for luciferase measurements.
Adenoviral constructs. Recombinant adenovirus α-skeletal actin-luc, and 3×MEF2-luc were constructed using the Adeasy vector system (Qbiogene) according to manufacturers instructions. […] Recombinant adenovirus β-galactosidase was from Qbiogene. Cells were plated in 96-well plates, and 24 hr after plating, were infected with recombinant adenovirus at moi of 50 in serum free media for three hrs. Forty-eight hrs after infection, the cells were lysed and luciferase levels were measured as above.
A further assay concerns MEF-2 reporter. As to the kind of experiment: 3×MEF2 promoter-luciferase reporter in H9C2 cells. The settings on record: for MEF-2 reporter expression: agonist 100 μM. From the text: Plasmid constructs used. Gal4 DNA-binding domain constructs were generated by cloning cDNAs encoding constitutively active murine calcineurin (residues 1-398) and full length human MEF-2 into the pBIND expression vector (Promega, Inc.). VP16 fusion constructs were created by cloning full length human MCIP1 and HDAC5 cDNAs into the pACT expression vector (Promega, Inc.). In assays, Gal4 and VP16 fusion constructs were cotransfected with pG5-luc reporter (Promega), a firefly luciferase gene under control of a multimerized Gal4 promoter sequence. Promoter reporter constructs were generated by cloning the promoter regions of ANF, α-skeletal actin, IL-2 (with multiple NFAT binding sites) and myoglobin genes upstream of a promoter-less firefly luciferase open reading frame (pGL3 plasmid, Promega, Inc.). Similarly, three consensus MEF-2 binding sites or a single TATA element were cloned into pGL3. HDAC5-GFP construct was a gift from E. Olson, UT Southwestern Medical Center, Dallas Tex.
Cells culture and transient transfections. All muscle cell lines were obtained from the American Type Culture Collection (ATCC). Cells were cultured under conditions recommended by ATCC. Transient transfections were carried out in 96-well plates (5000 cells/well) using the Fugene transfection reagent (Roche), as per manufacturer's instructions. […] Forty-eight hours post-transfection, cells were processed for luciferase measurements.
Adenoviral constructs. Recombinant adenovirus α-skeletal actin-luc, and 3×MEF2-luc were constructed using the Adeasy vector system (Qbiogene) according to manufacturers instructions. Recombinant adenovirus HDAC5 and HDAC5-S259/498A were provided by E. Olson. Recombinant adenovirus MCIPexon4 was provided by S. Williams. Recombinant adenovirus β-galactosidase was from Qbiogene. Cells were plated in 96-well plates, and 24 hr after plating, were infected with recombinant adenovirus at moi of 50 in serum free media for three hrs. Forty-eight hrs after infection, the cells were lysed and luciferase levels were measured as above.
Luciferase measurement. Transiently transfected or adenovirus transfected cells were processed for luciferase activity using the Luc-Lite assay kit (Packard), as per manufacturer's instructions. Briefly, cells were washed in serum- and phenol red-free medium, then lysed in the presence of luciferase substrate to produce a long half-life “glow” luminescence. Relative light intensity was quantitated on a Fusion Universal Microplate Analyzer (Packard).

Assay [2] relates to hypertrophic promoter activity (ANF, NFAT, MEF2, aSkAct, Myb). As to the kind of experiment: hypertrophic promoter-luciferase constructs in H9C2 cells, agonist dose-response survey. The conditions noted are these: dose-response survey of agonists. The method, then:
FIG. 5—H9C2 promoter activity is unresponsive to the adrenergic agonists isoproterenol, norepinephrine and forskolin. H9 cells were transfected with promoter-luciferase contructs as shown and as described in materials and methods. Transfected cells were treated with hypertrophic agonists as shown. Luciferase units were measured and plotted as fraction of untreated control vs concentration of agonist used. Symbols ANF, NFAT, MEF2, aSkAct, and Myb are used as in FIG. 3.
Plasmid constructs used. Gal4 DNA-binding domain constructs were generated by cloning cDNAs encoding constitutively active murine calcineurin (residues 1-398) and full length human MEF-2 into the pBIND expression vector (Promega, Inc.). VP16 fusion constructs were created by cloning full length human MCIP1 and HDAC5 cDNAs into the pACT expression vector (Promega, Inc.). […] Promoter reporter constructs were generated by cloning the promoter regions of ANF, α-skeletal actin, IL-2 (with multiple NFAT binding sites) and myoglobin genes upstream of a promoter-less firefly luciferase open reading frame (pGL3 plasmid, Promega, Inc.). […]
Luciferase measurement. […] Briefly, cells were washed in serum- and phenol red-free medium, then lysed in the presence of luciferase substrate to produce a long half-life “glow” luminescence. Relative light intensity was quantitated on a Fusion Universal Microplate Analyzer (Packard).

Where [3] appears, read: recombinant adenovirus infection, moi of 50.
Setting [4] is: drug added at transfection or expression construct, 48 h.

Turning to “HDAC5-S259/498A: mutant of HDAC5 where serine residues 259 and 498 are replaced by alanine; super-repressor of the MEF-2 pathway”, in assay [1] (setting [3]), the “repression of the alpha-skeletal-actin promoter” value is “most effective repressor”. Further, in the assay with MEF-2 reporter (setting [3]), the “repression of the 3×MEF2 promoter” value was “most effective repressor”.
In the case of `CNC[C@H](O)c1cccc(O)c1` [phenylephrine], the MEF-2 reporter expression result in the assay on MEF-2 reporter is on record as “unaffected”.
With `CC(C)NCC(O)c1ccc(O)c(O)c1` (centres unmarked) [isoproterenol], in assay [2], the hypertrophic promoter activity entry was “relatively unaffected”.
For “HDAC: anti-hypertrophic gene product HDAC5, MEF-2 inhibitor, expressed by transfection or adenovirus”, the “expression of alpha skeletal actin reporter” value in assay [1] (setting [4]) is reported as “significantly reduced”. Further, the “expression of MEF-2 reporter” value in the assay on MEF-2 reporter (setting [4]) is “significantly reduced”.
For the compound `NC[C@H](O)c1ccc(O)c(O)c1` [norepinephrine], the hypertrophic promoter activity entry in assay [2] was “relatively unaffected”.
Take `CC[C@H](C)[C@H](NC(=O)[C@H](CC(=O)O)NC(=O)[C@H](CC(C)C)NC(=O)[C@H](Cc1c[nH]cn1)NC(=O)[C@@H]1CSSC[C@H](N)C(=O)N[C@@H](CO)C(=O)N[C@H]2CSSC[C@H](NC(=O)[C@H](CCC(=O)O)NC(=O)[C@H](CCCCN)NC(=O)[C@H](CC(=O)O)NC(=O)[C@H](CCSC)NC(=O)[C@H](CC(C)C)NC(=O)[C@H](CO)NC(=O)[C@H](CO)NC2=O)C(=O)N[C@@H](C(C)C)C(=O)N[C@@H](Cc2ccc(O)cc2)C(=O)N[C@@H](Cc2ccccc2)C(=O)N1)C(=O)N[C@H](C(=O)N[C@@H](Cc1c[nH]c2ccccc12)C(=O)O)[C@@H](C)CC` [endothelin]: in the assay on MEF-2 reporter, the MEF-2 reporter expression result was “unaffected”.

Values taken from patent US20030186289A1, “Model cell systems for screening of anti-hypertrophic therapeutics” (Myogen, Inc., priority 2002, published 2003).
